# Source: patent US11207366B2, “Traditional Chinese medicine composition comprising dried tangerine peels and dark tea for treating diabetes and preparation method thereof” (priority 2017, dated 2021)
# Tested on: diabetes patients
# Assay: Clinical experiment examples: fasting blood glucose of diabetes patients
# Assay type: in vivo, human
# Excerpt: In another preferred embodiment of the present invention, the tea bricks after the above-mentioned about 2-year aging time are pulled apart and left in the air for about 30 days for oxidization. After the loosen tea leaves are oxidized for about 30 days, they are smashed into small particles or powders. And then another 5 parts (by weight) to 15 parts (by weight) of blended tangerine peels are taken and smashed into particles or powders. The above-mentioned tangerine peels, in particles or powders form, are blended into the above-mentioned black teas, in particles or powders form. Then the composition can be used as the traditional Chinese medical tea drinks for treating diabetes. General patients can drink the tea once or twice a day, each time 5-10 grams. Severe patients can drink twice a day, each time 10-20 grams.
# Clinical Experiment Examples
# Oct. 23, 2016: fasting blood glucose was 8.9 mml. The patient administrated metformin, three times a day, one tablet each time before meals.
# Oct. 29, 2016: the value of fasting blood glucose was 6.8 mml, and the traditional Chinese medicine tea drinks of the present invention were administrated twice a day, each time 5 grams of the tea, with the continuation of administration of the metformin.
# Subject: The patient is a person, who has a long history of diabetes. Before drinking the traditional Chinese medicine tea drinks of the present invention, the subject administrated hypoglycemic agents (metformin) for long before each meal, each time 2 tablets. Test results (measured on empty stomach at 7 o'clock in the morning)
# From the above case, it can be seen that only administration of metformin to decrease blood glucose would not lead to a good controlling effect, and the average value of blood glucose was 12.3 mml with a large fluctuation that varies from the 8.5 mml to the highest 19.5 mml After drinking the traditional Chinese medicine tea drinks of the present invention (brewing 1 to 2 bags every day), the average value of blood glucose was 8.6 mml with a steady trend where the values were fluctuated within 7-10 mml without the occurrence of very high measured results.
structure (smiles),measurement,setting,value
CN(C)C(=N)N=C(N)N [metformin],fasting blood glucose,"Case 1, Oct. 23, 2016, metformin three times a day, one tablet before meals (first day reported)",8.9 mml
same,fasting blood glucose,"Case 1, Oct. 24, 2016, metformin only",7.5 mml
same,fasting blood glucose,"Case 1, Oct. 25, 2016, metformin only",7.4 mml
same,fasting blood glucose,"Case 1, Oct. 26, 2016, metformin only, big dinner and wine the evening before",8.3 mml
same,fasting blood glucose,"Case 1, Oct. 29, 2016, on metformin, day the tea drinks (twice a day, 5 grams) were started",6.8 mml
same,measured average value of blood glucose,"Case 1, metformin, 9 days from October 20 to October 29",7.5 mml
same,blood glucose measured on empty stomach at 7 o'clock in the morning,"Case 2, metformin only (2 tablets before each meal), Aug. 24, 2016",9.4 mml
same,blood glucose measured on empty stomach at 7 o'clock in the morning,"Case 2, metformin only, Aug. 28, 2016",9.9 mml
same,blood glucose measured on empty stomach at 7 o'clock in the morning,"Case 2, metformin only, Dec. 2, 2016",11.8 mml
same,blood glucose measured on empty stomach at 7 o'clock in the morning,"Case 2, metformin only, Dec. 9, 2016",12.6 mml
same,blood glucose measured on empty stomach at 7 o'clock in the morning,"Case 2, metformin only, Dec. 14, 2016",11.9 mml
same,blood glucose measured on empty stomach at 7 o'clock in the morning,"Case 2, metformin only, Dec. 18, 2016",12.3 mml
same,blood glucose measured on empty stomach at 7 o'clock in the morning,"Case 2, metformin only, Dec. 24, 2016",12.5 mml
same,blood glucose measured on empty stomach at 7 o'clock in the morning,"Case 2, metformin only, Dec. 28, 2016",14.7 mml
same,blood glucose measured on empty stomach at 7 o'clock in the morning,"Case 2, metformin only, Jan. 2, 2017",13.3 mml
same,blood glucose measured on empty stomach at 7 o'clock in the morning,"Case 2, metformin only, Jan. 6, 2017",11.8 mml
same,blood glucose measured on empty stomach at 7 o'clock in the morning,"Case 2, metformin only, Nov. 1, 2016",14.5 mml
same,blood glucose measured on empty stomach at 7 o'clock in the morning,"Case 2, metformin only, Nov. 5, 2016",13.4 mml
same,blood glucose measured on empty stomach at 7 o'clock in the morning,"Case 2, metformin only, Nov. 10, 2016",11.1 mml
same,blood glucose measured on empty stomach at 7 o'clock in the morning,"Case 2, metformin only, Nov. 13, 2016",13 mml
same,blood glucose measured on empty stomach at 7 o'clock in the morning,"Case 2, metformin only, Nov. 18, 2016",14 mml
same,blood glucose measured on empty stomach at 7 o'clock in the morning,"Case 2, metformin only, Nov. 20, 2016",8.5 mml
same,blood glucose measured on empty stomach at 7 o'clock in the morning,"Case 2, metformin only, Nov. 27, 2016",9.4 mml
same,blood glucose measured on empty stomach at 7 o'clock in the morning,"Case 2, metformin only, Oct. 1, 2016",11 mml
same,blood glucose measured on empty stomach at 7 o'clock in the morning,"Case 2, metformin only, Oct. 4, 2016",12.7 mml
same,blood glucose measured on empty stomach at 7 o'clock in the morning,"Case 2, metformin only, Oct. 11, 2016",15.9 mml
same,blood glucose measured on empty stomach at 7 o'clock in the morning,"Case 2, metformin only, Oct. 24, 2016",19.5 mml
same,blood glucose measured on empty stomach at 7 o'clock in the morning,"Case 2, metformin only, Sep. 3, 2016",12.5 mml
same,blood glucose measured on empty stomach at 7 o'clock in the morning,"Case 2, metformin only, Sep. 11, 2016",8.7 mml
same,blood glucose measured on empty stomach at 7 o'clock in the morning,"Case 2, metformin only, Sep. 23, 2016",11.6 mml
same,average value of blood glucose,"Case 2, only administration of metformin",12.3 mml
